Data from ChEMBL document CHEMBL2439971, “Design, synthesis and antiproliferative evaluation of fluorenone analogs with DNA topoisomerase I inhibitory properties” (Bioorg Med Chem, 2013).
Active and inactive are the calls of the source. The rule behind the calls is not given here.

Tests used:
[1] = species on record: Homo sapiens; assay: Inhibition of telomerase (unknown origin) at 10 uM TRAP assay
[2] = tested on: MDA-MB-468; assay: Cytotoxicity against human MDA-MB-468 cells at 10 uM after 48 hrs by sulforhodamine B assay relative to control; format: functional
[3] = tested on: T47D; assay: Cytotoxicity against human T47D cells at 10 uM after 48 hrs by sulforhodamine B assay relative to control; format: functional
[4] = tested on: BT-549; assay: Cytotoxicity against human BT549 cells at 10 uM after 48 hrs by sulforhodamine B assay relative to control; format: functional
[5] = Cytotoxicity against human Hs 578T cells at 10 uM after 48 hrs by sulforhodamine B assay relative to control; format: functional
[6] = tested on: MDA-MB-231; assay: Cytotoxicity against human MDA-MB-231 cells at 10 uM after 48 hrs by sulforhodamine B assay relative to control; format: functional
[7] = tested on: MCF7; assay: Cytotoxicity against human MCF7 cells at 10 uM after 48 hrs by sulforhodamine B assay relative to control; format: functional
[8] = tested on: DU-145; assay: Cytotoxicity against human DU145 cells at 10 uM after 48 hrs by sulforhodamine B assay relative to control; format: functional
[9] = tested on: PC-3; assay: Cytotoxicity against human PC3 cells at 10 uM after 48 hrs by sulforhodamine B assay relative to control; format: functional
[10] = tested on: UO-31; assay: Cytotoxicity against human UO31 cells at 10 uM after 48 hrs by sulforhodamine B assay relative to control; format: functional
[11] = tested on: TK-10; assay: Cytotoxicity against human TK10 cells at 10 uM after 48 hrs by sulforhodamine B assay relative to control; format: functional
[12] = tested on: SN12C; assay: Cytotoxicity against human SN12C cells at 10 uM after 48 hrs by sulforhodamine B assay relative to control; format: functional
[13] = tested on: RXF 393; assay: Cytotoxicity against human RXF393 cells at 10 uM after 48 hrs by sulforhodamine B assay relative to control; format: functional
[14] = tested on: ACHN; assay: Cytotoxicity against human ACHN cells at 10 uM after 48 hrs by sulforhodamine B assay relative to control; format: functional
[15] = tested on: 786-0; assay: Cytotoxicity against human 786-0 cells at 10 uM after 48 hrs by sulforhodamine B assay relative to control; format: functional
[16] = tested on: NCI/ADR-RES; assay: Cytotoxicity against human NCI/ADR-RES cells at 10 uM after 48 hrs by sulforhodamine B assay relative to control; format: functional
[17] = tested on: OVCAR-8; assay: Cytotoxicity against human OVCAR8 cells at 10 uM after 48 hrs by sulforhodamine B assay relative to control; format: functional
[18] = tested on: OVCAR-5; assay: Cytotoxicity against human OVCAR5 cells at 10 uM after 48 hrs by sulforhodamine B assay relative to control; format: functional
[19] = tested on: OVCAR-4; assay: Cytotoxicity against human OVCAR4 cells at 10 uM after 48 hrs by sulforhodamine B assay relative to control; format: functional
[20] = tested on: OVCAR-3; assay: Cytotoxicity against human OVCAR3 cells at 10 uM after 48 hrs by sulforhodamine B assay relative to control; format: functional
[21] = tested on: IGROV-1; assay: Cytotoxicity against human IGROV1 cells at 10 uM after 48 hrs by sulforhodamine B assay relative to control; format: functional
[22] = tested on: UACC-62; assay: Cytotoxicity against human UACC62 cells at 10 uM after 48 hrs by sulforhodamine B assay relative to control; format: functional
[23] = tested on: UACC-257; assay: Cytotoxicity against human UACC257 cells at 10 uM after 48 hrs by sulforhodamine B assay relative to control; format: functional
[24] = tested on: SK-MEL-5; assay: Cytotoxicity against human SK-MEL-5 cells at 10 uM after 48 hrs by sulforhodamine B assay relative to control; format: functional
[25] = tested on: SK-MEL-28; assay: Cytotoxicity against human SK-MEL-28 cells at 10 uM after 48 hrs by sulforhodamine B assay relative to control; format: functional
[26] = tested on: SK-MEL-2; assay: Cytotoxicity against human SK-MEL-2 cells at 10 uM after 48 hrs by sulforhodamine B assay relative to control; format: functional
[27] = tested on: M14; assay: Cytotoxicity against human M14 cells at 10 uM after 48 hrs by sulforhodamine B assay relative to control; format: functional
[28] = tested on: Malme-3M; assay: Cytotoxicity against human MALME-3M cells at 10 uM after 48 hrs by sulforhodamine B assay relative to control; format: functional
[29] = tested on: LOX IMVI; assay: Cytotoxicity against human LOXIMVI cells at 10 uM after 48 hrs by sulforhodamine B assay relative to control; format: functional
[30] = tested on: SNB-75; assay: Cytotoxicity against human SNB75 cells at 10 uM after 48 hrs by sulforhodamine B assay relative to control; format: functional
[31] = tested on: U-251; assay: Cytotoxicity against human U251 cells at 10 uM after 48 hrs by sulforhodamine B assay relative to control; format: functional
[32] = tested on: SF-539; assay: Cytotoxicity against human SF539 cells at 10 uM after 48 hrs by sulforhodamine B assay relative to control; format: functional
[33] = tested on: SNB-19; assay: Cytotoxicity against human SNB19 cells at 10 uM after 48 hrs by sulforhodamine B assay relative to control; format: functional
[34] = tested on: SF-268; assay: Cytotoxicity against human SF268 cells at 10 uM after 48 hrs by sulforhodamine B assay relative to control; format: functional
[35] = tested on: SW-620; assay: Cytotoxicity against human SW620 cells at 10 uM after 48 hrs by sulforhodamine B assay relative to control; format: functional
[36] = tested on: KM12; assay: Cytotoxicity against human KM12 cells at 10 uM after 48 hrs by sulforhodamine B assay relative to control; format: functional
[37] = tested on: HT-29; assay: Cytotoxicity against human HT-29 cells at 10 uM after 48 hrs by sulforhodamine B assay relative to control; format: functional
[38] = tested on: HCT-15; assay: Cytotoxicity against human HCT15 cells at 10 uM after 48 hrs by sulforhodamine B assay relative to control; format: functional
[39] = tested on: HCT-116; assay: Cytotoxicity against human HCT116 cells at 10 uM after 48 hrs by sulforhodamine B assay relative to control; format: functional
[40] = tested on: HCC 2998; assay: Cytotoxicity against human HCC2998 cells at 10 uM after 48 hrs by sulforhodamine B assay relative to control; format: functional
[41] = tested on: COLO 205; assay: Cytotoxicity against human COLO205 cells at 10 uM after 48 hrs by sulforhodamine B assay relative to control; format: functional
[42] = tested on: NCI-H522; assay: Cytotoxicity against human NCI-H522 cells at 10 uM after 48 hrs by sulforhodamine B assay relative to control; format: functional
[43] = tested on: NCI-H460; assay: Cytotoxicity against human NCI-H460 cells at 10 uM after 48 hrs by sulforhodamine B assay relative to control; format: functional
[44] = tested on: NCI-H23; assay: Cytotoxicity against human NCI-H23 cells at 10 uM after 48 hrs by sulforhodamine B assay relative to control; format: functional
[45] = tested on: NCI-H226; assay: Cytotoxicity against human NCI-H226 cells at 10 uM after 48 hrs by sulforhodamine B assay relative to control; format: functional
[46] = tested on: HOP-62; assay: Cytotoxicity against human HOP62 cells at 10 uM after 48 hrs by sulforhodamine B assay relative to control; format: functional
[47] = Cytotoxicity against human EKVX cells at 10 uM after 48 hrs by sulforhodamine B assay relative to control; format: functional
[48] = tested on: A549; assay: Cytotoxicity against human A549 cells at 10 uM after 48 hrs by sulforhodamine B assay relative to control; format: functional
[49] = tested on: SR; assay: Cytotoxicity against human SR cells at 10 uM after 48 hrs by sulforhodamine B assay relative to control; format: functional
[50] = tested on: RPMI-8226; assay: Cytotoxicity against human RPMI8226 cells at 10 uM after 48 hrs by sulforhodamine B assay relative to control; format: functional
[51] = tested on: MOLT-4; assay: Cytotoxicity against human MOLT4 cells at 10 uM after 48 hrs by sulforhodamine B assay relative to control; format: functional
[52] = tested on: K562; assay: Cytotoxicity against human K562 cells at 10 uM after 48 hrs by sulforhodamine B assay relative to control; format: functional
[53] = tested on: HL-60(TB); assay: Cytotoxicity against human HL-60(TB) cells at 10 uM after 48 hrs by sulforhodamine B assay relative to control; format: functional
[54] = tested on: CCRF-CEM; assay: Cytotoxicity against human CCRF-CEM cells at 10 uM after 48 hrs by sulforhodamine B assay relative to control; format: functional
[55] = tested on: PC-3; assay: Cytotoxicity against human PC3 cells after 48 hrs by sulforhodamine B assay; format: functional, cell-based; details: PC-3, 48 h

CN1CCN(CCC(=O)Nc2ccc3c(c2)C(=O)c2cc(NC(=O)CCN4CCN(C)CC4)ccc2-3)CC1
inhibition [1]: inactive | Activity [2]: 88.91% | Activity [3]: 102.07% | Activity [4]: 107.82% | Activity [5]: 102.5% | Activity [6]: 115.67% | Activity [7]: 95.72% | Activity [8]: 112.6% | Activity [9]: 104.35% | Activity [10]: 89.26% | Activity [11]: 99.67% | Activity [12]: 102.94% | Activity [13]: 97.03% | Activity [14]: 100.97% | Activity [15]: 100.57% | Activity [16]: 103.89% | Activity [17]: 101.48% | Activity [18]: 104.62% | Activity [19]: 99.91% | Activity [20]: 116.35% | Activity [21]: 102.45% | Activity [22]: 104.21% | Activity [23]: 103.02% | Activity [24]: 107.35% | Activity [25]: 96.67% | Activity [26]: 109.38% | Activity [27]: 105.74% | Activity [28]: 98.05% | Activity [29]: 96.43% | Activity [30]: 77.89% | Activity [31]: 100.29% | Activity [32]: 111.08% | Activity [33]: 105.99% | Activity [34]: 109.98% | Activity [35]: 105.36% | Activity [36]: 111.12% | Activity [37]: 101.23% | Activity [38]: 101.35% | Activity [39]: 100.16% | Activity [40]: 99.57% | Activity [41]: 108.32% | Activity [42]: 86.63% | Activity [43]: 107.13% | Activity [44]: 96.83% | Activity [45]: 98.16% | Activity [46]: 109.22% | Activity [47]: 111.18% | Activity [48]: 106.9% | Activity [49]: 92.06% | Activity [50]: 106.48% | Activity [51]: 94.59% | Activity [52]: 99.19% | Activity [53]: 103.58% | Activity [54]: 97.76% | IC50 [55]: > 30 µM
